In patent US10633338B2, “Binding Function 3 (BF3) site compounds as therapeutics and methods for their use” (THE UNIVERSITY OF BRITISH COLUMBIA, priority 2014, dated 2020):
Where two headings read alike, the source gives them in different places.

Tests used:
androgen receptor (AR) = biological target: T1, androgen receptor (AR) (Homo sapiens, UniProt P10275, T878A); experiment: eGFP cellular AR transcription assay; format: cell-based; conditions: LN-ARR2PBeGFP LNCaP cells, 0.1 nM R1881, 3 days incubation; for IC50: read-out: eGFP IC50
T1 construct: stably transfected eGFP-expressing LNCaP human prostate cancer cells (LN-ARR2PB-eGFP) containing an androgen responsive probasin-derived promoter; endogenous in cells; host or cells: LNCaP (LN-ARR2PB-eGFP)
T1 sequence (P10275 1-920 T878A): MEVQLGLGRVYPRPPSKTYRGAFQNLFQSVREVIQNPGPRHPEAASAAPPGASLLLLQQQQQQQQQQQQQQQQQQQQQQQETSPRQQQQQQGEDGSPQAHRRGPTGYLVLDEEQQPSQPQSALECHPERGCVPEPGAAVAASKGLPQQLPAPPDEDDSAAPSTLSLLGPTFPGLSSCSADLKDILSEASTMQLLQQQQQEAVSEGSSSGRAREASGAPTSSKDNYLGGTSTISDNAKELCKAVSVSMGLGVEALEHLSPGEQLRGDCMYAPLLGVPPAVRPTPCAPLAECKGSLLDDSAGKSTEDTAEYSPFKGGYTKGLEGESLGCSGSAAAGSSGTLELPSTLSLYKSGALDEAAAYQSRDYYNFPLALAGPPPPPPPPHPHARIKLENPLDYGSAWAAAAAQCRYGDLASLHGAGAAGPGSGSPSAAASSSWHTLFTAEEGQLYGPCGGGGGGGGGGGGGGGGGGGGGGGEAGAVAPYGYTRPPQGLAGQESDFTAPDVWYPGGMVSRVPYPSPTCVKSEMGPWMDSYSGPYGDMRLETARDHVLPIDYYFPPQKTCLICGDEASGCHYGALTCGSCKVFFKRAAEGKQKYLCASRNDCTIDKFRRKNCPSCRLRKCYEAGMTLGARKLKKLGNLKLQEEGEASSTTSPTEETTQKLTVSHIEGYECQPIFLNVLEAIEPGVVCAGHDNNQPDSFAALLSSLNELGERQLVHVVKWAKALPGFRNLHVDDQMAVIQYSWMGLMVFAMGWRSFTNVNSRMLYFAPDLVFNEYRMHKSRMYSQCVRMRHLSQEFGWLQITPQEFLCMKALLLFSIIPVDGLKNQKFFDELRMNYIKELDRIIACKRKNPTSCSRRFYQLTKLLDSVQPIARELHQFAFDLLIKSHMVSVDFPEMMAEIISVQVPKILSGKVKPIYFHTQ
In short: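 AR transcriptional activity is read as eGFP expression from a probasin-derived androgen-responsive promoter. Compound titrated 0-100 μM in the presence of 0.1 nM R1881; 35,000 cells/well.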

PSA = experiment: Prostate Surface Antigen (PSA) assay, PSA excreted into the media; format: cell-based, human; conditions: PSA excreted into media, same plates as eGFP assay, 3 days incubation; for IC50: read-out: PSA IC50
Experimental: The evaluation of PSA excreted into the media was performed in parallel to the eGFP assay using the same plates (see above description). After the cells were incubated for 3 days 150 μl of the media was taken from each well, and added to 150 μl of PBS.

SMILES | eGFP IC50 (androgen receptor (AR)) | PSA IC50 (PSA) | IC50 (androgen receptor (AR)) | IC50 (PSA; Homo sapiens, 72 h) | IC50 (PSA)
Fc1cc(Cl)c2[nH]cc(-c3ccc4c(F)cccc4n3)c2c1 [Compound 13668] | Inactive | Inactive |  |  | 
Fc1cc(Cl)c2[nH]cc(-c3ccc4c(Cl)cccc4n3)c2c1 [Compound 13669] | Inactive | Inactive |  |  | 
O=[N+]([O-])c1cccc2nc(-c3c[nH]c4c(F)cc(F)cc34)ccc12 [Compound 13670] | Inactive | Inactive |  |  | 
Fc1cc(F)c2[nH]cc(-c3ccc4c(F)cccc4n3)c2c1 [Compound 13671] | Inactive | Inactive |  |  | 
Fc1cc(F)c2[nH]cc(-c3ccc4c(Cl)cccc4n3)c2c1 [Compound 13672] | Inactive | Inactive |  |  | 
O=C(O)c1cccc2nc(-c3c[nH]c4c(Cl)cc(F)cc34)ccc12 [Compound 13673] | Inactive | Inactive |  |  | 
c1ccc2cc(-c3n[nH]c4ccccc34)ccc2c1 [Compound 13674] |  |  | 75 nM | 51 nM | 
Cc1cccc2c(-c3ccc4c(Br)cccc4n3)c[nH]c12 [Compound 13678] | Inactive | Inactive |  |  | 
Cc1cccc2c(-c3ccc4c(Br)ccc(Br)c4n3)c[nH]c12 [Compound 13679] | Inactive | Inactive |  |  | 
Cc1ccc(Cl)c2c(-c3ccc4ccccc4n3)c[nH]c12 [Compound 13681] |  |  | 2500 nM | 1700 nM | 
Fc1cc2[nH]cc(-c3ccc4cccc(C(F)(F)F)c4n3)c2cc1F [Compound 13682] |  |  | 890 nM | 990 nM | 
Brc1ccc2[nH]cc(-c3ccc4ccccc4n3)c2c1 [Compound 13683] |  |  | 2600 nM | 1910 nM | 
c1ccc2ncc(-c3n[nH]c4ccccc34)cc2c1 [Compound 13684] |  |  | 1400 nM | 6610 nM | 
c1ccc2cc(-c3c[nH]c4ccncc34)ccc2c1 [Compound 13685] | Inactive | Inactive |  |  | 
Oc1cc2ccccc2cc1-c1nc2ccccc2[nH]1 [Compound 13687] | Inactive | Inactive |  |  | 
Fc1cccc2ccc(-c3c[nH]c4ccccc34)nc12 [Compound 13688] |  |  | 69 nM | 68 nM | 
O=[N+]([O-])c1cccc2nc(-c3c[nH]c4ccccc34)ccc12 [Compound 13689] | Inactive | Inactive |  |  | 
Fc1cccc2nc(-c3c[nH]c4ccccc34)ccc12 [Compound 13690] | Inactive | Inactive |  |  | 
CNC(=O)c1cccc2nc(-c3c[nH]c4ccccc34)ccc12 [Compound 13691] |  |  | 400 nM | 480 nM | 
Fc1cc2[nH]cc(-c3ccc4c(F)cccc4n3)c2cc1F [Compound 13693] |  |  | 110 nM | 120 nM | 
Fc1ccc2ccc(-c3c[nH]c4c(Cl)cccc34)nc2c1 [Compound 13694] |  |  | 70 nM | 67 nM | 
Fc1cc(F)c2[nH]cc(-c3ccc4cccc(F)c4n3)c2c1 [Compound 13695] |  |  | 69 nM | 87 nM | 
CNC(=O)c1cccc2nc(-c3c[nH]c4c(F)cc(F)cc34)ccc12 [Compound 13696] |  |  | 42 nM | 42 nM | 
Fc1cccc2ccc(-c3c[nH]c4c(F)cccc34)nc12 [Compound 13697] |  |  | 29 nM | 29 nM | 

SMILES | eGFP IC50 (androgen receptor (AR)) | PSA IC50 (PSA) | IC50 (androgen receptor (AR)) | IC50 (PSA; Homo sapiens, 72 h) | IC50 (PSA)
Fc1cccc2c(-c3ccc4cccc(Cl)c4n3)c[nH]c12 [Compound 13698] |  |  | 41 nM | 41 nM | 
Cc1cccc2c(-c3cnc4ccccc4n3)c[nH]c12 [Compound 13699] |  |  | 73 nM |  | 73 nM
c1ccc2c(Cc3nn[nH]n3)c[nH]c2c1 [Compound 13700] | Inactive | Inactive |  |  | 
c1ccc2c(-c3nn[nH]n3)c[nH]c2c1 [Compound 13701] | Inactive | Inactive |  |  | 
O=[N+]([O-])c1cccc2c(-c3ccc4ccccc4c3)c[nH]c12 [Compound 13702] |  |  | 210 nM | 140 nM | 
Cc1cc(F)cc2c(-c3ccc4ccc(F)cc4n3)n[nH]c12 [Compound 13704] |  |  | 350 nM | 169 nM | 
Cc1cc(F)cc2c(-c3cnc4cccc(Cl)c4n3)c[nH]c12 [Compound 13705] | Inactive | Inactive |  |  | 
Clc1cccc2nc(-c3c[nH]c4ccccc34)ccc12 [Compound 13706] | Inactive | Inactive |  |  | 
Fc1cc2[nH]cc(-c3ccc4c(Cl)cccc4n3)c2cc1F [Compound 13707] | Inactive | Inactive |  |  | 
Cc1cc(F)cc2c(-c3ccc4cccc(F)c4n3)c[nH]c12 [Compound 13708] |  |  | 290 nM | 290 nM | 
Cc1cc(F)cc2c(-c3ccc4c(Cl)cccc4n3)c[nH]c12 [Compound 13709] | Inactive | Inactive |  |  | 
CNC(=O)c1cccc2nc(-c3c[nH]c4c(C)cc(F)cc34)ccc12 [Compound 13710] |  |  | 230 nM | 250 nM | 
O=[N+]([O-])c1cccc2nc(-c3c[nH]c4c(Cl)cccc34)ccc12 [Compound 13711] | Inactive | Inactive |  |  | 
Fc1cccc2nc(-c3c[nH]c4c(Cl)cccc34)ccc12 [Compound 13712] | Inactive | Inactive |  |  | 
Fc1cccc2nc(-c3c[nH]c4c(Br)cccc34)ccc12 [Compound 13714] | Inactive | Inactive |  |  | 
Cc1cc(F)cc2c(-c3cnc4ccc(F)cc4n3)c[nH]c12 [Compound 13717] |  |  | 490 nM | 330 nM | 
Cc1cc(F)cc2c(-c3cnc4ccc(F)cc4n3)n[nH]c12 [Compound 13718] |  |  | 370 nM | 110 nM | 
Fc1cc(Cl)cc2cc[nH]c12 [Compound 13720] | Inactive | Inactive |  |  | 
Fc1cc(Cl)c2[nH]ccc2c1 [Compound 13721] | Inactive | Inactive |  |  | 
Cc1cc(F)cc2cc[nH]c12 [Compound 13722] | Inactive | Inactive |  |  | 
Fc1cc(F)c2[nH]ccc2c1 [Compound 13723] | Inactive | Inactive |  |  | 
Cc1cc(Cl)c2[nH]ccc2c1 [Compound 13724] | Inactive | Inactive |  |  | 
Fc1ccc2cc[nH]c2c1Cl [Compound 13725] | Inactive | Inactive |  |  | 
Fc1ccc(Cl)c2[nH]ccc12 [Compound 13726] | Inactive | Inactive |  |  | 
